According to patent US20070203114A1, “7,8,9,10-Tetrahydro-Imidazo [2,1-A] Isochinolines” (priority 2004, published 2007):

Columns and labels:
[1] = system: pentagastrin-stimulated acid secretion of the perfused rat stomach; assay: Secretion-inhibiting action on the perfused rat stomach (pentagastrin-stimulated acid secretion); format: in vivo; conditions: anesthetized CD rat, female; dose 3 μmol/kg i.d. (intraduodenal); pentagastrin 1 μg/kg i.v. continuous infusion
Description: Testing of the Secretion-Inhibiting Action on the Perfused Rat Stomach
In Table A which follows, the influence of the compounds according to the invention on the pentagastrin-stimulated acid secretion of the perfused rat stomach after intraduodenal administration in vivo is shown.
The abdomen anesthetized rats (CD rat, female, 200-250 g; 1.5 g/kg i.m. urethane) was opened after tracheotomy by a median upper abdominal incision and a PVC catheter was fixed transorally in the esophagus and another via the pylorus such that the ends of the tubes just projected into the gastric lumen. The catheter leading from the pylorus led outward into the right abdominal wall through a side opening.
After thorough rinsing (about 50-100 ml), warm (37° C.) physiological NaCl solution was continuously passed through the stomach (0.5 ml/min, pH 6.8-6.9; Braun-Unita I). The pH (pH meter 632, glass electrode EA 147; φ=5 mm, Metrohm) and, by titration with a freshly prepared 0.01N NaOH solution to pH 7 (Dosimat 665 Metrohm), the secreted HCl were determined in the effluent in each case collected at an interval of 15 minutes.
The gastric secretion was stimulated by continuous infusion of 1 μg/kg (=1.65 ml/h) of i.v. pentagastrin (left femoral vein) about 30 min after the end of the operation (i.e. after determination of 2 preliminary fractions). The substances to be tested were administered intraduodenally in a 2.5 ml/kg liquid volume 60 min after the start of the continuous pentagastrin infusion.
The body temperature of the animals was kept at a constant 37.8-38° C. by infrared irradiation and heat pads (automatic, stepless control by means of a rectal temperature sensor).

melting point	Structure (SMILES)	Inhibition of acid secretion [1]
343 to 345 °C (dec.)	Cc1nc2c3c(c(C(=O)O)cn2c1C)CCC(c1ccccc1)C3 (stereo not shown) [Example 2, 2,3-Dimethyl-9-phenyl-7,8,9,10-tetrahydro-imidazo[2,1-a]isoquinoline-6-carboxylic acid]	–
–	Cc1nc2c3c(c(C(=O)N4CCOCC4)cn2c1C)CCC(c1ccccc1)C3 (stereo not shown) [Example 7, (2,3-Dimethyl-9-phenyl-7,8,9,10-tetrahydro-imidazo[2,1-a]isoquinolin-6-yl)-morpholin-4-yl-methanone]	>40%
–	COCc1cn2c(C)c(C)nc2c2c1CCC(c1ccccc1)C2 (stereo not shown) [Example 11, 6-Methoxymethyl-2,3-dimethyl-9-phenyl-7,8,9,10-tetrahydro-imidazo[2,1]isoquinoline]	>40%
290 to 292 °C	Cc1nc2c3c(c(CO)cn2c1C)CCC(c1ccccc1)C3 (stereo not shown) [Example 10, (2,3-Dimethyl-9-phenyl-7,8,9,10-tetrahydro-imidazo[2,1-a]isoquinolin-6-yl)-methanol]	–
–	COCCNC(=O)c1cn2c(C)c(C)nc2c2c1CCC(c1ccccc1)C2 (stereo not shown) [Example 6, 2,3-Dimethyl-9-phenyl-7,8,9,10-tetrahydro-imidazo[2,1-a]isoquinoline-6-carboxylic acid (2-methoxy-ethyl)-amide]	>40%
165 to 167 °C	CCOC(=O)c1cn2c(C)c(C)nc2c2c1CCC(c1ccccc1)C2 (stereo not shown) [Example 1, 2,3-Dimethyl-9-phenyl-7,8,9,10-tetrahydro-imidazo[2,1-a]isoquinoline-6-carboxylic acid ethyl ester]	–
266 to 268 °C	CNC(=O)c1cn2c(C)c(C)nc2c2c1CCC(c1ccccc1)C2 (stereo not shown) [Example 8, 2,3-Dimethyl-9-phenyl-7,8,9,10-tetrahydro-imidazo[2,1-a]isoquinoline-6-carboxylic acid methylamide]	>40%
–	Cc1nc2c3c(c(C(=O)N(C)C)cn2c1C)CCC(c1ccccc1)C3 (stereo not shown) [Example 3, 2,3-Dimethyl-9-phenyl-7,8,9,10-tetrahydro-imidazo[2,1-a]isoquinoline-6-carboxylic acid dimethylamide]	>40%
–	Cc1nc2c3c(c(C(=O)N4CCCC4)cn2c1C)CCC(c1ccccc1)C3 (stereo not shown) [Example 4, (2,3-Dimethyl-9-phenyl-7,8,9,10-tetrahydro-imidazo[2,1-a]isoquinolin-6-yl)-pyrrolidin-1-yl-methanone]	>40%
